Measurements reported in ChEMBL document CHEMBL4840358, “Discovery of Modified Amidate (ProTide) Prodrugs of Tenofovir with Enhanced Antiviral Properties” (J Med Chem, 2021).

Legend:
[1] = system: Human immunodeficiency virus 1; experiment: Antiviral activity against HIV-1 infected in MT4 cells assessed as reduction in virus-induced cytopathic effect preincubated for 1 hr followed by viral infection and measured after 5 days by XTT assay; assay type: functional, organism-based; conditions: Human immunodeficiency virus 1, MT4
[2] = Cytotoxicity against in human MT4 cells after 5 days by XTT assay; assay type: cell-based; conditions: time 5 day
Hepatitis B virus = experiment: Antiviral activity against HBV infected in human HepG2-hNTCP cells assessed as reduction in HBV DNA incubated for day 1 followed by compound washout and fresh compound addition on following day and day 3, 6 and 10 measured on day 14 post infection by qPCR analysis; assay type: functional, organism-based
[3] = Cytotoxicity against human HepG2-hNTCP cells incubated for 3 days by XTT assay; assay type: cell-based; conditions: time 3 day
[4] = Selectivity index, ratio of CC50 for human MT-4 cells to EC50 for HIV-1 infected in MT-4 cells; assay type: toxicity, cell-based; conditions: read-out: Ratio CC50/EC50

SMILES | EC50 [1] [nM] | CC50 at 120 h [2] [nM] | EC50 (Hepatitis B virus) [nM] | CC50 at 72 h [3] [nM] | selectivity ratio [4]
CC(C)OC(=O)[C@H](C)N[P@@](=O)(CO[C@H](C)Cn1cnc2c(N)ncnc21)Oc1ccc(C[C@H](NCCCc2ccccc2)C(=O)OC2CCCC2)cc1 | 0.68 | 7600 | 4 | > 50000 | 
CC(C)OC(=O)[C@H](C)NP(=O)(CO[C@H](C)Cn1cnc2c(N)ncnc21)Oc1ccc(C[C@@H](C(=O)CC2CCCC2)N(CCCc2ccccc2)Cc2ccccc2)cc1 (stereo partly specified) |  |  | 1.3 | 46000 | 
CC(C)OC(=O)[C@H](C)NP(=O)(CO[C@H](C)Cn1cnc2c(N)ncnc21)Oc1ccc(C[C@H](NC(=O)OCc2ccccc2)C(=O)OC(C)C)cc1 (stereo partly specified) | 1.6 | 9400 | 4.2 | > 50000 | 
CC(C)OC(=O)[C@H](C)NP(=O)(CO[C@H](C)Cn1cnc2c(N)ncnc21)Oc1ccc(C[C@H](NC(=O)OCc2ccccc2)C(=O)OC2CCCC2)cc1 (stereo partly specified) | 0.9 | 8300 | 0.7 | > 50000 | 
COC(=O)[C@H](Cc1ccc(O[P@](=O)(CO[C@H](C)Cn2cnc3c(N)ncnc32)N[C@@H](C)C(=O)OC(C)C)cc1)N(C)C | 2500 | > 50000 |  |  | 
CCCCCCCCOC(=O)[C@H](Cc1ccc(OP(=O)(CO[C@H](C)Cn2cnc3c(N)ncnc32)N[C@@H](C)C(=O)OC(C)C)cc1)NC(=O)OCc1ccccc1 (stereo partly specified) | 38 | 27000 |  |  | 
CC(C)OC(=O)[C@H](C)N[P@](=O)(CO[C@H](C)Cn1cnc2c(N)ncnc21)Oc1ccc(C[C@H](NC(=O)OCc2ccccc2)C(=O)OC(C)C)cc1 | 0.6 | 10000 |  |  | 16700
COC(=O)[C@H](Cc1ccc(O[P@](=O)(CO[C@H](C)Cn2cnc3c(N)ncnc32)N[C@@H](C)C(=O)OC(C)C)cc1)NC(=O)c1ccccc1 | 72 | > 50000 |  |  | 
CCC(CC)COC(=O)[C@H](Cc1ccc(O[P@](=O)(CO[C@H](C)Cn2cnc3c(N)ncnc32)N[C@@H](C)C(=O)OC(C)C)cc1)NC(=O)OCc1ccccc1 | 36 | 38000 |  |  | 
COC(=O)[C@@H](N)Cc1ccc(O[P@@](=O)(CO[C@H](C)Cn2cnc3c(N)ncnc32)N[C@@H](C)C(=O)OC(C)C)cc1 | 350 | > 50000 |  |  | 
CCCCCCOC(=O)[C@H](Cc1ccc(OP(=O)(CO[C@H](C)Cn2cnc3c(N)ncnc32)N[C@@H](C)C(=O)OC(C)C)cc1)NC(=O)OCc1ccccc1 (stereo partly specified) | 1.8 | 8400 | 1.4 | > 50000 | 
CC(C)OC(=O)[C@H](C)N[P@@](=O)(CO[C@H](C)Cn1cnc2c(N)ncnc21)Oc1ccc(C[C@H](NC(=O)OCc2ccccc2)C(=O)OC(C)C)cc1 | 27 | 13000 |  |  | 
CCCCCCOC(=O)[C@H](Cc1ccc(O[P@@](=O)(CO[C@H](C)Cn2cnc3c(N)ncnc32)N[C@@H](C)C(=O)OC(C)C)cc1)NC(=O)OCc1ccccc1 | 16 | 13000 |  |  | 
COC(=O)[C@H](Cc1ccc(O[P@@](=O)(CO[C@H](C)Cn2cnc3c(N)ncnc32)N[C@@H](C)C(=O)OC(C)C)cc1)NC(=O)C(F)(F)F | 150 | > 50000 | 0.27 | > 50000 | 
CCOC(=O)[C@H](Cc1ccc(O[P@](=O)(CO[C@H](C)Cn2cnc3c(N)ncnc32)N[C@@H](C)C(=O)OC(C)C)cc1)NC(=O)OCc1ccccc1 | 20 | 13000 |  |  | 
COC(=O)[C@H](Cc1ccc(O[P@](=O)(CO[C@H](C)Cn2cnc3c(N)ncnc32)N[C@@H](C)C(=O)OC(C)C)cc1)NC(=O)C(F)(F)F | 540 | > 50000 | 1.6 | > 50000 | 
CC(C)CCOC(=O)[C@H](Cc1ccc(OP(=O)(CO[C@H](C)Cn2cnc3c(N)ncnc32)N[C@@H](C)C(=O)OC(C)C)cc1)NC(=O)OCc1ccccc1 (stereo partly specified) | 0.4 | 8400 | 0.2 | > 50000 | 
CC(C)CCOC(=O)[C@H](Cc1ccc(O[P@](=O)(CO[C@H](C)Cn2cnc3c(N)ncnc32)N[C@@H](C)C(=O)OC(C)C)cc1)NC(=O)OCc1ccccc1 | 11 | 24000 |  |  | 
CC(C)OC(=O)[C@H](C)NP(=O)(CO[C@H](C)Cn1cnc2c(N)ncnc21)Oc1ccc(C[C@H](NC(=O)OCc2ccccc2)C(=O)OC(C)(C)C)cc1 (stereo partly specified) | 13 | 6600 |  |  | 
CCOC(=O)[C@H](Cc1ccc(OP(=O)(CO[C@H](C)Cn2cnc3c(N)ncnc32)N[C@@H](C)C(=O)OC(C)C)cc1)NC(=O)OCc1ccccc1 (stereo partly specified) | 17 | 11000 | 3.6 | > 50000 | 
CCCCCCOC(=O)[C@H](Cc1ccc(O[P@](=O)(CO[C@H](C)Cn2cnc3c(N)ncnc32)N[C@@H](C)C(=O)OC(C)C)cc1)NC(=O)OCc1ccccc1 | 23 | 17000 |  |  | 
CC(C)OC(=O)[C@H](C)N[P@@](=O)(CO[C@H](C)Cn1cnc2c(N)ncnc21)Oc1ccc(C[C@H](NC(=O)OCc2ccccc2)C(=O)OC2CCCCC2)cc1 | 21 | 14000 |  |  | 
